Assay results taken from patent US20040073973A1, “Plant enzyme and use thereof” (priority 1996, published 2004).

How the values were obtained:
Assay type in all cases: biochemical, Ulmus glabra
[1] = tested on: Developing Elm Seed Soluble PLA2; assay: Effects of reduction, EGTA and heat on PLA2 activity; conditions: for sensitivity of PLA2 activities to reducing agents: purified soluble and microsomal PLA2s; for PLA2 Activity Released [^14C] fatty acids: control 4740 dpm
Experimental: (§1) Membrane associated PLA2 activity was assayed according to Stahl et al. (1995) using sn-1-palmitoyl-sn-2-[^14C]decanoyl-sn-glycerol-3-phosphocholine as substrate. In standard assays of the solubilized microsomal activity and of the soluble activity 1-palmitoyl-2-[[…]]palmitoyl-glycerol-sn-3-phosphocholine was used as substrate and was presented as mixed micelles with the non-ionic detergent lubrol PX, in a PC/detergent molar relation of 1:10. Samples, 0.5-10 μl, were assayed for PLA2 activity by incubation at 30° C. for 5-30 min with 5 nmol of ^14C-labelled phosphatidylcholine (10,000 dpm/nmol) in a total volume of 50 μl of 50 mM Tris/HCl, pH 8.0 containing 10 mM CaCl2 and 0.06% (w/v) lubrol PX. The reaction was stopped by the addition of 400 μl of chloroform/methanol/acetic acid 50:50:1 followed by 150 μl of H2O. The samples were mixed thoroughly and centrifuged 10,000 g for 1 min. Chloroform phases containing extracted lipids were passed through mini-columns of silica gel, followed by a wash with 400 μl of chloroform. The eluates from the silica columns, containing released [^14C]palmitic acid, were collected and analysed by scintillation counting.

microsomal PLA2 = assay: Substrate specificity of microsomal PLA2
Experimental: as §1

[2] = tested on: soluble developing elm seed PLA2; assay: Position specificity of soluble PLA2 (partly purified fraction)
Experimental: as §1

SMILES	sensitivity of PLA2 activities to reducing agents [1]	Recovered ^14C activity in LPC (microsomal PLA2)	Recovered ^14C activity in PC (microsomal PLA2)	Recovered ^14C activity in fatty acid (microsomal PLA2)	also measured
O[C@H](CS)[C@H](O)CS (racemic) [DTT, dithiothreitol]	sensitive	–	–	–	–
O=C(O)CN(CCOCCOCCN(CC(=O)O)CC(=O)O)CC(=O)O [EGTA]	–	–	–	–	PLA2 Activity Released [^14C] fatty acids ([1]; EGTA 10 mM): 170 dpm
OCCS [Mercaptoethanol]	sensitive	–	–	–	PLA2 Activity Released [^14C] fatty acids ([1]; Mercaptoethanol 1% (v/v)): 170 dpm
CCCCCCCCCCCCCCCC(=O)OC[C@H](COP(=O)([O-])OCC[N+](C)(C)C)OC(=O)CCCCCCCCC [sn-1-16:0-sn-2-[^14C]10:0-PC, sn-1-palmitoyl-sn-2-[^14C]decanoyl-sn-glycerol-3-phosphocholine]	–	0.6 % of total recovery	54 % of total recovery	44 % of total recovery	–
CCCCCCCCCCCCCCCC(=O)OC[C@H](COP(=O)([O-])OCC[N+](C)(C)C)OC(=O)CCCCCCCCCCCCCCC [sn-1-16:0-sn-2-[^14C]16:0-PC, sn-1-palmitoyl-sn-2-[^14C]palmitoyl-sn-glycerol-sn-3-phosphocholine]	–	0.8 % of total recovery	65 % of total recovery	34 % of total recovery	Recovered ^14C activity in LPC [2]: 0.6 % of total recovery; Recovered ^14C activity in PC [2]: 56 % of total recovery; Recovered ^14C activity in fatty acid [2]: 44 % of total recovery
